For assay [1], the target named is T1, Phosphatidylinositol 4,5-bisphosphate 3-kinase catalytic subunit gamma isoform (Homo sapiens, UniProt P48736). As to the kind of experiment: Inhibition of PI3Kgamma (unknown origin) preincubated for 10 mins followed by ATP addition and measured after 60 mins by ADP-Glo assay. On the technique in general: ADP-Glo turns the ADP formed in a reaction into a luminescent signal.
Target sequence in this assay (P48736 whole entry, canonical isoform): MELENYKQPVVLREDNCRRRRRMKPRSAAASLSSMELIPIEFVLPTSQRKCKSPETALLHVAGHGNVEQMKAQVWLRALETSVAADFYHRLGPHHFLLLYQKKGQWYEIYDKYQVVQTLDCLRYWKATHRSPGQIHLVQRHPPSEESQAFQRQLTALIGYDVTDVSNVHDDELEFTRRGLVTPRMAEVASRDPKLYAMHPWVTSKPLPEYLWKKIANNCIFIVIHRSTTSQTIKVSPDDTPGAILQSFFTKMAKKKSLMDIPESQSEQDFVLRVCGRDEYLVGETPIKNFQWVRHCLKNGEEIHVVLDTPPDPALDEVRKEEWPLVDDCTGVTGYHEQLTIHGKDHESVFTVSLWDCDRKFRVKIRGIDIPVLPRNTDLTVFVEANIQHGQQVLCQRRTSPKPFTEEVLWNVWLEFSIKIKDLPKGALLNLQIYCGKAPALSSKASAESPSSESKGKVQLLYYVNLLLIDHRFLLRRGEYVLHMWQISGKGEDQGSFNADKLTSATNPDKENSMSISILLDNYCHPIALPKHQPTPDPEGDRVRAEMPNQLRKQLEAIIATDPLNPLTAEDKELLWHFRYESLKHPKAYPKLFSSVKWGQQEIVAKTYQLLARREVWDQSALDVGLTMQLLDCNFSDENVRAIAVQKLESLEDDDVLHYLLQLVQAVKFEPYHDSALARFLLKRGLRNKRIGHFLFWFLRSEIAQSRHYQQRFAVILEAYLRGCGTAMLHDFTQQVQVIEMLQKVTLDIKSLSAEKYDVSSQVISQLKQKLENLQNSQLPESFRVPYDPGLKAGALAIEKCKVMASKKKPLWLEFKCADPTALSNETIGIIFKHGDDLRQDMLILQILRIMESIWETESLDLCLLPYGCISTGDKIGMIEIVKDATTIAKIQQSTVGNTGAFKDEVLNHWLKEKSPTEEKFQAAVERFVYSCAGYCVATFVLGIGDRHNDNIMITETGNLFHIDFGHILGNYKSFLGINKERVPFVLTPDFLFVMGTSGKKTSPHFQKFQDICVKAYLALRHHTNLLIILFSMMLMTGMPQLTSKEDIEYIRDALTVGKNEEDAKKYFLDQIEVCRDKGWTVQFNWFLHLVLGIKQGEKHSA

The target in assay [2] is T1, Phosphatidylinositol 4,5-bisphosphate 3-kinase catalytic subunit gamma isoform. As to the kind of experiment: Inhibition of PI3Kgamma (unknown origin) at 10 uM preincubated for 10 mins followed by ATP addition and measured after 60 mins by ADP-Glo assay relative to control. Particulars: time 70.0 min.
Target sequence in this assay (P48736 whole entry, looked up, canonical isoform): as the sequence (P48736 whole entry, canonical isoform) above
Assay [3] has as its target Phosphatidylinositol 4,5-bisphosphate 3-kinase catalytic subunit gamma isoform (Mus musculus) (UniProt Q9JHG7). As to the kind of experiment: Inhibition of PI3Kgamma in mouse RAW264 cells assessed as reduction in LPS-stimulated IL-6 mRNA expression preincubated for 6 hrs followed by LPS addition and measured after 24 hrs by RT-PCR analysis. The conditions noted are these: RAW264.7, dose 1.2-10 µM, time 30.0 hrs. The class given is cell-based.

For assay [4] the target is unchanged. As to the kind of experiment: Inhibition of PI3Kgamma in mouse RAW264 cells assessed as reduction in LPS-stimulated TNFalpha mRNA expression preincubated for 6 hrs followed by LPS addition and measured after 24 hrs by RT-PCR analysis. The class given is cell-based. The conditions noted are these: RAW264.7, dose 1.2-10 µM, time 30.0 hrs.
For assay [5], the target named is Phosphatidylinositol 4,5-bisphosphate 3-kinase catalytic subunit alpha isoform (Homo sapiens, UniProt P42336). The assay can be described thus: Inhibition of PI3Kalpha (unknown origin) preincubated for 10 mins followed by ATP addition and measured after 60 mins by ADP-Glo assay.
Assay [6] deals with RAW264.7. As to the kind of experiment: Inhibition of PI3K/AKT signalling pathway in mouse RAW264.7 cells assessed as reduction in LPS-stimulated phosphorylation of AKT at Ser473 residue at 5 to 20 uM preincubated with compound followed by LPS stimulation for 6 hrs by Western blot analysis. The assay is classed as cell-based. Particulars: dose 5-20 µM, TDE = time-dependent effect.

Assay [7] relates to RAW264.7. The assay can be described thus: Inhibition of PI3K/AKT signalling pathway in mouse RAW264.7 cells assessed as reduction in LPS-stimulated phosphorylation of AKT at Ser473 residue preincubated for 6 hrs followed by LPS stimulation for 6 hrs by Western blot analysis. Particulars: dose 5-20 µM, time 12.0 hrs. The class given is cell-based. (In general: In western blotting, separated proteins are transferred to a membrane and probed.)

Assay [8] concerns the target T2, Phosphatidylinositol 4,5-bisphosphate 3-kinase catalytic subunit delta isoform (Homo sapiens, UniProt O00329).
T2 sequence (O00329 whole entry): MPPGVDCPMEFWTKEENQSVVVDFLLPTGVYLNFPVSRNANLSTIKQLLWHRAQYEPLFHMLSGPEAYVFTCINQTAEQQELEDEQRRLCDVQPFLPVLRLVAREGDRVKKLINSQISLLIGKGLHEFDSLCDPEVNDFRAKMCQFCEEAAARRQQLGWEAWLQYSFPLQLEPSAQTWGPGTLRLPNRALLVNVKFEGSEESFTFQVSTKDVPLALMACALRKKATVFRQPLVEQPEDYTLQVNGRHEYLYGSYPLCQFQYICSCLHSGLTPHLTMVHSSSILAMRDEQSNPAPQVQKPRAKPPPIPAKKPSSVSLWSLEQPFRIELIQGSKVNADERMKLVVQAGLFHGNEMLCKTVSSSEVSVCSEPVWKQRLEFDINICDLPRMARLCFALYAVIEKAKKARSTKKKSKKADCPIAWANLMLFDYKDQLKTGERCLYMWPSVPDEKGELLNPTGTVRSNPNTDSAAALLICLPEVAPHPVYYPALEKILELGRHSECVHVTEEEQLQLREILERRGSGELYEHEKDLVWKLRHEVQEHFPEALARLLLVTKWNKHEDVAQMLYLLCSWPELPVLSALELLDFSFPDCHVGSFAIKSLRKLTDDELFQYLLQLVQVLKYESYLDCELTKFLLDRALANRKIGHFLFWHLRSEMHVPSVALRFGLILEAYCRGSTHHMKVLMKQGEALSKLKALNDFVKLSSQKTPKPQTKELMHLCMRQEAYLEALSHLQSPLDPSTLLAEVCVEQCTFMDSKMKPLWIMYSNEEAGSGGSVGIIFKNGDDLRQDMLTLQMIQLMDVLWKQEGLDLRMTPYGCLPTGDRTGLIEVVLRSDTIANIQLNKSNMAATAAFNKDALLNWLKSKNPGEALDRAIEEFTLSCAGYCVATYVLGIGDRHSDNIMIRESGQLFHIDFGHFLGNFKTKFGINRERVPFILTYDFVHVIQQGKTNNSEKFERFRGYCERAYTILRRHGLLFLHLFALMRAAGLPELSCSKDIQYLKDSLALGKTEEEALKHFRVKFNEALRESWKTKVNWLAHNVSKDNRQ
The assay can be described thus: Inhibition of PI3Kdelta (unknown origin) preincubated for 10 mins followed by ATP addition and measured after 60 mins by ADP-Glo assay.

The target of assay [9] is Phosphatidylinositol 4,5-bisphosphate 3-kinase catalytic subunit beta isoform (Homo sapiens, UniProt P42338). As to the kind of experiment: Inhibition of PI3Kbeta (unknown origin) preincubated for 10 mins followed by ATP addition and measured after 60 mins by ADP-Glo assay.
Chain of Phosphatidylinositol 4,5-bisphosphate 3-kinase catalytic subunit beta isoform (P42338 whole entry, canonical isoform): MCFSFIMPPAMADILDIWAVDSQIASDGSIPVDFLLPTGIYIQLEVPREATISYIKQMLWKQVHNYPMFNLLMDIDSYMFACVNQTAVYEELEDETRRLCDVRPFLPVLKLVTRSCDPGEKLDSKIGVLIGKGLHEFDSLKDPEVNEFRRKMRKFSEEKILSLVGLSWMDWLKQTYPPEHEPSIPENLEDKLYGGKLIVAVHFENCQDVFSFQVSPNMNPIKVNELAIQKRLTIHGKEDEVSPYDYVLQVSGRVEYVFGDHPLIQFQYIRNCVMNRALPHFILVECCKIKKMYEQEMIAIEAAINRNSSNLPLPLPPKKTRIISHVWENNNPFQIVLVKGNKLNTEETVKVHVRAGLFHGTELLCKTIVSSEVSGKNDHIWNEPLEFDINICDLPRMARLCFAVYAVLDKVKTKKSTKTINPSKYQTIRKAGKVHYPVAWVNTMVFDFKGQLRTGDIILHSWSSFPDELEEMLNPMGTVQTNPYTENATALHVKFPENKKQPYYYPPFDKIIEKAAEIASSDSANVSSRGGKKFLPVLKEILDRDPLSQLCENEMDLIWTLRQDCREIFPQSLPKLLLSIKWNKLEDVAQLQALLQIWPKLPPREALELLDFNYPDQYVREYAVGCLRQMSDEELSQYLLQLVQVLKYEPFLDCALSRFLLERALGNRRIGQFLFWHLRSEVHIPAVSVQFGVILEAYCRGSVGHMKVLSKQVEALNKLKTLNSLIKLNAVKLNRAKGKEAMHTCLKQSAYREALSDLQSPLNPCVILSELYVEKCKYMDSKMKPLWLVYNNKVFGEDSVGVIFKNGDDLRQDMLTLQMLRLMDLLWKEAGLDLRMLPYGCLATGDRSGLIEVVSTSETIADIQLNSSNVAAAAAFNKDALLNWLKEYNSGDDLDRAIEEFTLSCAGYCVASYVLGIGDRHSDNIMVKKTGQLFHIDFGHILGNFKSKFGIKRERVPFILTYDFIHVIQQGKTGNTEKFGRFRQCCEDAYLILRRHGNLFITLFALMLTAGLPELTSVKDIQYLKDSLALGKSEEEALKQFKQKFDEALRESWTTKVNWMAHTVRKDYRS

Chain of Phosphatidylinositol 4,5-bisphosphate 3-kinase catalytic subunit gamma isoform (Mus musculus) (Q9JHG7 whole entry, looked up, canonical isoform): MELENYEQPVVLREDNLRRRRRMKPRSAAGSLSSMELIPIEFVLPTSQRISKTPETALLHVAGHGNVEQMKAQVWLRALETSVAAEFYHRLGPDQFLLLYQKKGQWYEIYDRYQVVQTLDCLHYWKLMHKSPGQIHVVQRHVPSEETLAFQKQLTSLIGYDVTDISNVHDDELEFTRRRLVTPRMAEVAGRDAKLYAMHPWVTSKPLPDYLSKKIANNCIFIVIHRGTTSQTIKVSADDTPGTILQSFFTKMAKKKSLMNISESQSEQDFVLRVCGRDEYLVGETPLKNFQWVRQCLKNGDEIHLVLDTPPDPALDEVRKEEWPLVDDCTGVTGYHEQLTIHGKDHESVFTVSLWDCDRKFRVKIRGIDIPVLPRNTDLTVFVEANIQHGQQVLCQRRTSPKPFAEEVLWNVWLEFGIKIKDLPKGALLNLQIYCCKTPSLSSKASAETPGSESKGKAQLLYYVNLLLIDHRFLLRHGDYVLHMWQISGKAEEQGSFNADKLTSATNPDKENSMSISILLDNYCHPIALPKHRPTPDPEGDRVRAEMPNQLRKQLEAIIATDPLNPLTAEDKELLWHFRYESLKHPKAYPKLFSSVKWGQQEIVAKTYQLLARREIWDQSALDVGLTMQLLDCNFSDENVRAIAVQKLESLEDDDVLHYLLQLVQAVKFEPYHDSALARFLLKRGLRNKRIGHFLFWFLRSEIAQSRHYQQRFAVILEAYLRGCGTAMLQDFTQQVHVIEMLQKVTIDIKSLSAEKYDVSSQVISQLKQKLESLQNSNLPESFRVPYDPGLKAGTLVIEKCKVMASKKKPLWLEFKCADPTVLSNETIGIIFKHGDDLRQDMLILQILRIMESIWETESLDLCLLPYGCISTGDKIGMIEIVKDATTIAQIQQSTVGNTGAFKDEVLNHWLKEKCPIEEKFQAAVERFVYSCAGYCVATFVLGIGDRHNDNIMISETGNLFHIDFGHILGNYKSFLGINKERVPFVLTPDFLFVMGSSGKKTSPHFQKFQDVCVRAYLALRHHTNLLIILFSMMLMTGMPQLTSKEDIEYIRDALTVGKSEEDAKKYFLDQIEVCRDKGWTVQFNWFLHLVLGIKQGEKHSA
Chain of Phosphatidylinositol 4,5-bisphosphate 3-kinase catalytic subunit alpha isoform (P42336 whole entry, canonical isoform): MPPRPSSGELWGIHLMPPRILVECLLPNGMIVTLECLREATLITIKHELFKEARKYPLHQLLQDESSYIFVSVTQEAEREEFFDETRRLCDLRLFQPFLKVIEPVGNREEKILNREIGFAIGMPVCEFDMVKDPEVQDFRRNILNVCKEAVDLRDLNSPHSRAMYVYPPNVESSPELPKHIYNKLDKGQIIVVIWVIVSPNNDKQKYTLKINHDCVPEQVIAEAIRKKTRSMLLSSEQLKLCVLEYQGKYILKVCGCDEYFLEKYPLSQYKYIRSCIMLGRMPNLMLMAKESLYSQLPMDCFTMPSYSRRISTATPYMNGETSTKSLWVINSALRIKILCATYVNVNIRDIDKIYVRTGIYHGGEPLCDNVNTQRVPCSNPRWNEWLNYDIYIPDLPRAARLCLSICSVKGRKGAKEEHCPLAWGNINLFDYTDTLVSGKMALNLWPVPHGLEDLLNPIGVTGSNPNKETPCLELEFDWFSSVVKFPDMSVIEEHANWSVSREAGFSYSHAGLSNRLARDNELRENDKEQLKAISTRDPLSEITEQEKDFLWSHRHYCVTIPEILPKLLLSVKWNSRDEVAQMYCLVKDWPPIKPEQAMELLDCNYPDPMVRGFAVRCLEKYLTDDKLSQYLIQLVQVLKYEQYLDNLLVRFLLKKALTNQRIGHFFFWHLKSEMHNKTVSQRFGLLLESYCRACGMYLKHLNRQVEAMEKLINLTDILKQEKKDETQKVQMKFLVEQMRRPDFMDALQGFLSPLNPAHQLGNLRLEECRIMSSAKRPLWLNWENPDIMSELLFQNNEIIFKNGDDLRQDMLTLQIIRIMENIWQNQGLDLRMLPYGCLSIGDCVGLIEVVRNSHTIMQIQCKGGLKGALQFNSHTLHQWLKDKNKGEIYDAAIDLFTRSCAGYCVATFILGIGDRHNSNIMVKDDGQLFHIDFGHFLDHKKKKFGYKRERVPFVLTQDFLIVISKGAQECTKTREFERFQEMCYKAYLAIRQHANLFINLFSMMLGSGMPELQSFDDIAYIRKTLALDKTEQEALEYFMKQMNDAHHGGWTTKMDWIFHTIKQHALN

`Cn1c(=O)c2cc(S(N)(=O)=O)ccc2n(C)c1=O`: the half-maximal inhibitory concentration (IC50) (as a rule, the midpoint of a concentration-inhibition curve) in assay [1] was 17.5 µM. Moreover, the inhibition (in general, the percentage by which the read-out fell short of the control) in assay [2] came out at 55%.

For the compound `Cn1c(=O)c2cc(S(=O)(=O)NC3CC3)ccc2n(C)c1=O`, in assay [1], it took 15.9 µM to reach half-maximal inhibition (IC50). Also, the inhibition in assay [2] worked out at 40%.

Regarding `Cn1c(=O)n(C)c2ccc3ccc4ccc1c2c43`, the concentration for half-maximal inhibition (IC50) came to 2.45 µM in [1], 5.64 µM in assay [5], 11.7 µM in assay [8] and 5.02 µM in assay [9]. Besides, the inhibition result is “Dose-Dependent Effect” in assay [3]; “Dose-Dependent Effect” in assay [4]; “Tde” in [6]; “Dose-Dependent Effect” in [7]; 80% in [2].
